Experimental data taken from PMC5403252 (Pharmacology, biochemistry, and behavior, 2016).
Where a name gives a salt, the structure may show the parent alone. Read-outs that look alike come from different tables or passages of the source.

Tests used:
Sprague–Dawley rats [1] = assay: Acoustic startle: startle magnitude; assay type: in vivo, rat
Sprague–Dawley rats [2] = assay: Prepulse inhibition; assay type: in vivo, rat
5-HT2A [3] = settings: rats; ref Bedard and Pycock 1977; Matthews and Smith 1980; cited from earlier work
[4] = 10 mg/kg IP; ref Sitaram et al. 1987; cited from earlier work
5-HT uptake = settings: ref Berge et al. 1983; Chang et al. 1993; Nagai et al. 2007; cited from earlier work
Sprague–Dawley rats [5] = assay: Behavioral Pattern Monitor locomotor activity; assay type: in vivo, rat; settings: 5-MeO-DMT 1 mg/kg SC, clorgyline 0.3 mg/kg pretreatment; fifth 10-min time block, p<0.05
[6] = 5-MeO-DMT and bufotenine levels in plasma by LC-ESI-SRM-MS/MS; assay type: in vivo, rat; settings: for AUC / Cmax: rat, plasma, sc, 1 mg/kg, 1 mg/kg SC; for AUC: plasma AUC20→70 min for 5-MeO-DMT, trapezoidal rule; for Cmax: plasma Cmax of 5-MeO-DMT
5-HT2A [7] = settings: cited from earlier work
[8] = 5-MeO-DMT and bufotenine levels in whole brain by LC-ESI-SRM-MS/MS; assay type: in vivo, rat; settings: for Cmax: rat, whole brain, sc, 1 mg/kg, Cmax of 5-MeO-DMT in whole brain
[9] = after SC administration of 1 mg/kg
[10] = clorgyline 0.3 mg/kg pretreatment

OC(c1ccccc1)C1CCN(CCc2ccccc2)CC1 (stereo not drawn) [MDL 11,939, α-Phenyl-1-(2-phenylethyl)-4-piperidinemethanol]
Startle magnitude (mean±SEM) (Sprague–Dawley rats [1]; MDL 11,939 0.3 mg/kg pretreatment, pargyline 10 + 5-MeO-DMT 1.0 mg/kg, experiment 3, n=10): 419.79±48.30
Effect of pretreatment on ability of pargyline and 5-MeO-DMT to reduce PPI (Sprague–Dawley rats [2]; MDL 11,939 0.3 mg/kg pretreatment, p<0.01, Tukey's test): significantly attenuated

COc1ccccc1N1CCN(CCN(C(=O)C2CCCCC2)c2ccccn2)CC1.O=C(O)/C=C\C(=O)O [WAY-100635, N-[2-[4-(2-methoxyphenyl)-1-piperazinyl]ethyl]-N-2-pyridinylcyclohexanecarboxamide maleate]
Startle magnitude (mean±SEM) (Sprague–Dawley rats [1]; WAY-100635 1.0 mg/kg SC pretreatment, vehicle treatment, experiment 3, n=10): 271.30±51.26
Startle magnitude (mean±SEM) (Sprague–Dawley rats [1]; WAY-100635 1.0 mg/kg pretreatment, pargyline 10 + 5-MeO-DMT 1.0 mg/kg, experiment 3, n=10): 172.03±47.00
Effect of pretreatment on reduction of PPI produced by 10 mg/kg pargyline and 1 mg/kg 5-MeO-DMT (Sprague–Dawley rats [2]; WAY-100,635 1 mg/kg pretreatment, p<0.01, Tukey's test): significantly antagonized

COc1ccc2[nH]cc(CCN(C)C)c2c1 [5-MeO-DMT, 5-Methoxy-N,N-dimethyltryptamine]
Startle magnitude (mean±SEM) (Sprague–Dawley rats [1]; clorgyline 0.3 mg/kg pretreatment, 5-MeO-DMT 1.0 mg/kg SC, 45 min, experiment 2, n=12): 544.45±62.88
Startle magnitude (mean±SEM) (Sprague–Dawley rats [1]; vehicle pretreatment, 5-MeO-DMT 0.1 mg/kg SC, tested 45 min post-injection, experiment 1, n=10): 180.58±37.92
Startle magnitude (mean±SEM) (Sprague–Dawley rats [1]; vehicle pretreatment, 5-MeO-DMT 1.0 mg/kg SC, 45 min, experiment 1, n=10): 274.12±56.96
doses eliciting the head twitch response (HTR) (5-HT2A [3]): 0.2 to 1 mg/kg
increase of 5-MeO-DMT blood levels by iproniazid [4]: 40 fold
increase of 5-MeO-DMT brain levels by iproniazid [4]: ~100 fold
concentrations inhibiting 5-HT uptake (5-HT uptake): low micromolar concentrations
Crossings (locomotor activity) versus vehicle pretreatment (Sprague–Dawley rats [5]): significantly more crossings
time at which level of 5-MeO-DMT in plasma peaked [6, 9]: ≤ 20 min
AUC [6, 10]: 31.4 ± 2.3 ng·h/mL
AUC ([6]; vehicle pretreatment): 12.2 ± 1.7 ng·h/mL
Cmax [6, 10]: 78.1 ± 9.5 ng/mL
Cmax ([6]; vehicle pretreatment): 52.7 ± 11.8 ng/mL
concentration of 5-MeO-DMT required to activate 5-HT2A (5-HT2A [7]; ref Blair et al. 2000, Parrish and Nichols 2006): low micromolar range
concentration of 5-MeO-DMT required to activate 5-HT2A (5-HT2A [7]; ref Newton et al. 1996, Rabin et al. 2002, Kurrasch-Orbaugh et al. 2003, Strachan et al. 2010): several hundred nanomolar
peak level of 5-MeO-DMT in the brain ([8]; 1 mg/kg SC, no MAO inhibitor): 144.3 nM
time at which level of 5-MeO-DMT in brain peaked [8, 9]: ≤ 20 min
Cmax ([8]; 1 mg/kg SC, clorgyline 0.3 mg/kg pretreatment): 634 ± 146 ng/g
Cmax ([8]; 1 mg/kg SC, vehicle pretreatment): 30.3 ± 11.2 ng/g
Effect on PPI (Sprague–Dawley rats [2]; 5-MeO-DMT 1.0 mg/kg SC in animals pretreated with clorgyline 0.3 mg/kg, 45 min, all three prepulse intensities, p<0.01): significantly reduced PPI
Effect on PPI (Sprague–Dawley rats [2]; 5-MeO-DMT 1 mg/kg SC in animals pretreated with pargyline 10 mg/kg, 45 min, all three prepulse intensities, p<0.01): significantly reduced PPI
Effect on PPI (Sprague–Dawley rats [2]; 5-MeO-DMT 1.0 mg/kg SC, saline-pretreated animals, 45 min, experiment 2): did not alter PPI
Effect on PPI (Sprague–Dawley rats [2]; 5-MeO-DMT 0.1 or 1.0 mg/kg SC, saline-pretreated animals, tested 45 min post-injection, experiment 1): did not alter PPI

C#CCN(C)CCCOc1ccc(Cl)cc1Cl.Cl [Clorgyline, N-methyl-N-propargyl-3-(2,4-dichlorophenoxy)-propylamine HCl]
Startle magnitude (mean±SEM) (Sprague–Dawley rats [1]; clorgyline 0.3 mg/kg SC pretreatment, vehicle treatment, experiment 2, n=12): 422.31±78.47

C#CCN(C)Cc1ccccc1 [Pargyline, pargyline HCl]
Startle magnitude (mean±SEM) (Sprague–Dawley rats [1]; pargyline 10 mg/kg SC pretreatment, vehicle treatment, experiment 1, n=10): 167.66±22.30
Effect on PPI (Sprague–Dawley rats [2]; pargyline 10 mg/kg alone compared with vehicle pretreatment): did not significantly reduce PPI
